Laboratory results taken from patent US20200031920A1, “Combination Therapy for Treating Cancer” (The George Washington University, priority 2017, published 2020).

What was measured:
PEO1 cells = experiment: cell proliferation assay, PEO1 cells; type: cell-based; details: 5 days
Description: FIG. 63 is a line graph showing the proliferation of PEO1 and PEO4 cells treated with increasing concentrations of cisplatin for 5 days. Data are represented as mean±SD from three independent experiments performed in triplicate. Indicated IC50 values represent the mean of […] independent experiments performed in triplicate.
For ovarian cancer, recurrence more than 12 months after initial chemotherapy was considered as platinum sensitive. PEO4 was derived from the patient 10 months later when they had progressive disease and had become cisplatin resistant.

IL-11 = IL-11 secretion by ELISA in cell culture medium; type: cell-based, human; details: SKOV3 cells, various small doses of cisplatin, four days
Method: FIG. 69 are bar graphs ((A)-(C) and (E)-(F)) and illustrations ((D) and (G)) showing that reactive oxygen species (ROS) induces IL-11 expression. (A) is a bar graph showing quantification of ROS production in SKOV3 and SKOV3 CR cells. Data are represented as means±SD from three independent experiments. **p<0.01. Scale bar, 100 μm. (B) is a bar graph showing quantification of ROS production in SKOV3 CR cells after treatment with the ROS inhibitor YCG063 at 20 μM for 24 hr. Data are represented as means±SD from three independent experiments. ***p<0.001. (C) is a bar graph showing IL-11 levels measured by ELISA in the medium of SKOV3 CR cells treated with YCG063 at 20 μM for 24 hr. Data are represented as mean±SD from three independent experiments performed in triplicate. ***p<0.001. (D) is an illustration showing an immunoblot of phosphorylated JAK2 and STAT5 in SKOV3 CR cells treated with YCG063 (20 μM) for 24 hr. (E) is a bar graph showing quantification of ROS production in SKOV3 cells after treated with the ROS inhibitor YCG063 (20 μM), cisplatin (1 μM), or both for 24 hr. Data are represented as means±SD from three independent experiments. **p<0.01, ***p<0.001, n.s. means not significant by one-way ANOVA. (F) is a bar graph showing IL-11 levels measured by ELISA in SKOV3 cells treated with YCG063 (20 μM), cisplatin (1 μM) or both for 24 hr. Data are represented as mean±SD from three independent experiments performed in triplicate. ***p<0.001 by one-way ANOVA. (G) is an illustration showing an immunoblot of phosphorylated JAK2 and STAT5 in SKOV3 CR cells treated with YCG063 (20 μM), cisplatin (1 μM) or both for 24 hr.
Next, the factor from medium that contributes to cisplatin resistance of SKOV3 CR cells was investigated. […] The cell-free culture medium, mouse serum, and patient serum were analyzed for IL-11 levels using a human IL-11 ELISA kit (R&D Systems) according to the manufacturer's instructions. The absorbance was read at 450 nm using a microplate reader (BioTek). The data were normalized to the cell number. […]

`N.N.[Cl][Pt][Cl]` [cisplatin] was tested, and the IC50 (PEO1 cells) was 320 nM and the IL-11 secretion (IL-11) was “increased in a cisplatin dose dependent manner”.
